This is an account of results in patent US20070128217A1 (priority 2003, published 2007).

Experiment [1] has as its system antibodies in sera from SARS patients (sera 1a, 1b, 2, 6, 37, 62, London, SARS-yellow, SARS-green). Format: binding, human. Set-up: Binding of serum 6 to linear peptides of protein X1 of SARS-CoV Urbani / Binding of serum 37 to linear peptides of protein X1 of SARS-CoV Urbani / Binding of serum 6 to looped/cyclic peptide (PEPSCAN-ELISA) / Binding of serum 37 to looped/cyclic peptide (PEPSCAN-ELISA) / Binding of serum 37 to looped/cyclic peptides of protein X1 of SARS-CoV Urbani / Binding of serum 6 to linear peptides of protein X2 / Binding of serum 37 to linear peptides of protein X2 / Binding of serum 37 to looped/cyclic peptides of protein X2 of SARS-CoV Urbani / Binding of serum 6 to linear peptides of protein M of SARS-CoV Urbani / Binding of serum 37 to linear peptides of protein M of SARS-CoV Urbani / Binding of serum 6 to looped/cyclic peptides of protein M of SARS-CoV Urbani / Binding of serum 37 to looped/cyclic peptides of protein M of SARS-CoV Urbani / Binding of serum 6 to linear peptides of protein X3 of SARS-CoV Urbani / Binding of serum 37 to linear peptides of protein X3 of SARS-CoV Urbani / Binding of serum 37 to looped/cyclic peptides of protein X3 of SARS-CoV Urbani / Binding of serum 6 to linear peptides of protein X4 of SARS-CoV Urbani / Binding of serum 37 to linear peptides of protein X4 of SARS-CoV Urbani / Binding of serum 37 to looped/cyclic peptides of protein X4 of SARS-CoV Urbani / Binding of serum 6 to linear peptides of protein X5 of SARS-CoV Urbani / Binding of serum 37 to linear peptides of protein X5 of SARS-CoV Urbani / Binding of serum 37 to looped/cyclic peptides of protein X5 of SARS-CoV Urbani / Binding of serum 6 to linear peptides of protein N of SARS-CoV Urbani / Binding of serum 37 to linear peptides of protein N of SARS-CoV Urbani / Binding of serum 6 to linear peptide (PEPSCAN-ELISA) / Binding of serum 1a to looped/cyclic peptides of protein N of SARS-CoV Urbani / Binding of serum 1b to looped/cyclic peptides of protein N of SARS-CoV Urbani / Binding of serum 2 to looped/cyclic peptides of protein N of SARS-CoV Urbani / Binding of serum 6 to looped/cyclic peptides of protein N of SARS-CoV Urbani / Binding of serum 37 to looped/cyclic peptides of protein N of SARS-CoV Urbani / Binding of serum 62 to looped/cyclic peptides of protein N of SARS-CoV Urbani / Binding of serum London to looped/cyclic peptides of protein N of SARS-CoV Urbani / Binding of serum SARS-green to looped/cyclic peptides of protein N of SARS-CoV Urbani: unit not given here.

Experiment [2] deals with control sera (pooled serum of ten healthy LUMC hospital workers; commercial negative donor pooled serum from the Dutch bloodbank). Format: binding, human. The arrangement: Binding of Control serum LUMC to linear peptides / Binding of Control serum Blood-bank to linear peptides / Binding of Control serum LUMC to looped peptides / Binding of Control Serum Blood-Bank to Looped peptides / Binding of Control serum LUMC to linear peptides of the protein M of SARS-CoV Urbani / Binding of Control serum Blood-bank to linear peptides of the protein M of SARS-CoV Urbani / Binding of Control serum LUMC to looped peptides of the protein M of SARS-CoV Urbani / Binding of Control Serum Blood-Bank to Looped peptides of the protein M of SARS-CoV Urbani: unit not given here.

Experiment [3] relates to rabbit serum obtained by immunizing a rabbit with the SARS-CoV strain Frankfurt 1. The experiment is classed as binding. The arrangement: Binding of a rabbit serum to linear peptides / Binding of a rabbit serum to looped peptides / Rabbit serum linear peptides / Rabbit serum looped peptides / Binding of a rabbit serum to linear peptides of protein N of SARS-CoV Urbani (Rabbit serum linear peptides) / Binding of a rabbit serum to looped/cyclic peptides of protein N of SARS-CoV Urbani (Rabbit serum looped peptides): unit not given here.

As for IIKLVFLWLLWPVTL, in experiment [1], the “Binding of serum 1a to linear peptides of protein M of SARS-CoV Urbani” value is on record as 0.7, the “Binding of serum 1a to looped/cyclic peptides of protein M of SARS-CoV Urbani” value is reported as 0.6, the “Binding of serum 1b to linear peptides of protein M of SARS-CoV Urbani” value stood at 0.5 and the “Binding of serum 1b to looped/cyclic peptides of protein M of SARS-CoV Urbani” value is 0.7. For the same sequence, in experiment [1], the “Binding of serum 2 to linear peptides of protein M of SARS-CoV Urbani” value came to 0.4, the “Binding of serum 2 to looped/cyclic peptides of protein M of SARS-CoV Urbani” value came to 0.5, the “Binding of serum 6 to linear peptides of protein M of SARS-CoV Urbani” value was determined as 0.4 and the “Binding of serum 6 to looped/cyclic peptides of protein M of SARS-CoV Urbani” value amounted to 0.5. Besides, in experiment [1], the “Binding of serum 37 to linear peptides of protein M of SARS-CoV Urbani” value is 0.3, the “Binding of serum 37 to looped/cyclic peptides of protein M of SARS-CoV Urbani” value is recorded as 0.5, the “Binding of serum 62 to linear peptides of protein M of SARS-CoV Urbani” value was determined as 0.3 and the “Binding of serum 62 to looped/cyclic peptides of protein M of SARS-CoV Urbani” value is 0.6. In experiment [1], the “Binding of serum London to linear peptides of protein M of SARS-CoV Urbani” value stood at 0.3, the “Binding of serum London to looped/cyclic peptides of protein M of SARS-CoV Urbani” value is 0.2, the “Binding of serum SARS-green to linear peptides of protein M of SARS-CoV Urbani” value was found to be 0.4 and the “Binding of serum SARS-green to looped/cyclic peptides of protein M of SARS-CoV Urbani” value stood at 0.3. In experiment [1], the “Binding of serum SARS-yellow to linear peptides of protein M of SARS-CoV Urbani” value worked out at 0.2 and the “Binding of serum SARS-yellow to looped/cyclic peptides of protein M of SARS-CoV Urbani” value is listed as 0.4. Also, in experiment [2], the “Binding of Control Serum Blood-Bank to Looped peptides of the protein M of SARS-CoV Urbani” value worked out at 0.7, the “Binding of Control serum Blood-bank to linear peptides of the protein M of SARS-CoV Urbani” value came to 0.5, the “Binding of Control serum LUMC to linear peptides of the protein M of SARS-CoV Urbani” value stood at 0.6 and the “Binding of Control serum LUMC to looped peptides of the protein M of SARS-CoV Urbani” value is 0.6. For the same sequence, in experiment [3], the “Rabbit serum linear peptides” value turned out to be 0.1 and the “Rabbit serum looped peptides” value turned out to be 0.0.
As to IILFLTLIVFTSCEL, in experiment [1], the “Binding of serum 1a to linear peptides of protein X4 of SARS-CoV Urbani” value is 0.8, the “Binding of serum 1a to looped/cyclic peptides of protein X4 of SARS-CoV Urbani” value turned out to be 0.7, the “Binding of serum 1b to linear peptides of protein X4 of SARS-CoV Urbani” value is 0.8 and the “Binding of serum 1b to looped/cyclic peptides of protein X4 of SARS-CoV Urbani” value is reported as 0.1. Besides, in experiment [1], the “Binding of serum 2 to linear peptides of protein X4 of SARS-CoV Urbani” value is recorded as 0.6, the “Binding of serum 2 to looped/cyclic peptides of protein X4 of SARS-CoV Urbani” value stood at 0.6, the “Binding of serum 6 to linear peptides of protein X4 of SARS-CoV Urbani” value is given as 0.5 and the “Binding of serum 6 to looped/cyclic peptides of protein X4 of SARS-CoV Urbani” value is 0.5. In experiment [1], the “Binding of serum 37 to linear peptides of protein X4 of SARS-CoV Urbani” value amounted to 0.9, the “Binding of serum 37 to looped/cyclic peptides of protein X4 of SARS-CoV Urbani” value worked out at 0.7, the “Binding of serum 62 to linear peptides of protein X4 of SARS-CoV Urbani” value was 0.8 and the “Binding of serum 62 to looped/cyclic peptides of protein X4 of SARS-CoV Urbani” value is listed as 0.7. Besides, in experiment [1], the “Binding of serum London to linear peptides of protein X4 of SARS-CoV Urbani” value worked out at 0.7, the “Binding of serum London to looped/cyclic peptides of protein X4 of SARS-CoV Urbani” value was found to be 0.2, the “Binding of serum SARS-green to linear peptides of protein X4 of SARS-CoV Urbani” value turned out to be 0.6 and the “Binding of serum SARS-green to looped/cyclic peptides of protein X4 of SARS-CoV Urbani” value is given as 0.4. Besides, in experiment [1], the “Binding of serum SARS-yellow to linear peptides of protein X4 of SARS-CoV Urbani” value is given as 0.7 and the “Binding of serum SARS-yellow to looped/cyclic peptides of protein X4 of SARS-CoV Urbani” value is 0.6. Further, in experiment [2], the “Binding of Control Serum Blood-Bank to Looped peptides” value was 0.7, the “Binding of Control serum Blood-bank to linear peptides” value is reported as 0.7, the “Binding of Control serum LUMC to linear peptides” value is 0.9 and the “Binding of Control serum LUMC to looped peptides” value was found to be 0.6. Moreover, in experiment [3], the “Rabbit serum linear peptides” value is recorded as 0.8 and the “Rabbit serum looped peptides” value was found to be 0.5.
Consider ILLNVPLRGTIVTRP, for which, in experiment [1], the “Binding of serum 1a to linear peptides of protein M of SARS-CoV Urbani” value worked out at 0.6, the “Binding of serum 1b to linear peptides of protein M of SARS-CoV Urbani” value stood at 0.4, the “Binding of serum 2 to linear peptides of protein M of SARS-CoV Urbani” value stood at 0.4 and the “Binding of serum 6 to linear peptides of protein M of SARS-CoV Urbani” value is reported as 0.2. Also, in experiment [1], the “Binding of serum 37 to linear peptides of protein M of SARS-CoV Urbani” value was 0.4, the “Binding of serum 62 to linear peptides of protein M of SARS-CoV Urbani” value worked out at 0.4, the “Binding of serum London to linear peptides of protein M of SARS-CoV Urbani” value is given as 0.3 and the “Binding of serum SARS-green to linear peptides of protein M of SARS-CoV Urbani” value was determined as 0.4. For the same sequence, in experiment [1], the “Binding of serum SARS-yellow to linear peptides of protein M of SARS-CoV Urbani” value was 0.2; the “Recognition of the peptide by sera of SARS-CoV infected individuals, and form (linear, looped/cyclic) in which it is recognized” value was “recognized in looped/cyclic form”. For the same sequence, in experiment [2], the “Binding of Control Serum Blood-Bank to Looped peptides of the protein M of SARS-CoV Urbani” value came out at 0.5, the “Binding of Control serum Blood-bank to linear peptides of the protein M of SARS-CoV Urbani” value turned out to be 0.6, the “Binding of Control serum LUMC to linear peptides of the protein M of SARS-CoV Urbani” value was found to be 0.4 and the “Binding of Control serum LUMC to looped peptides of the protein M of SARS-CoV Urbani” value is recorded as 0.5. Further, in experiment [3], the “Rabbit serum linear peptides” value stood at 0.0 and the “Rabbit serum looped peptides” value was 0.2.
Consider ILVRYNTRGNTYSTA, for which, in experiment [1], the “Binding of serum 1a to linear peptides of protein X5 of SARS-CoV Urbani” value came to 0.7, the “Binding of serum 1a to looped/cyclic peptides of protein X5 of SARS-CoV Urbani” value is listed as 0.5, the “Binding of serum 1b to linear peptides of protein X5 of SARS-CoV Urbani” value is recorded as 0.4 and the “Binding of serum 1b to looped/cyclic peptides of protein X5 of SARS-CoV Urbani” value was 0.3. Besides, in experiment [1], the “Binding of serum 2 to linear peptides of protein X5 of SARS-CoV Urbani” value came to 0.6, the “Binding of serum 2 to looped/cyclic peptides of protein X5 of SARS-CoV Urbani” value came out at 0.6, the “Binding of serum 6 to linear peptides of protein X5 of SARS-CoV Urbani” value amounted to 0.7 and the “Binding of serum 6 to looped/cyclic peptides of protein X5 of SARS-CoV Urbani” value is recorded as 0.6. Moreover, in experiment [1], the “Binding of serum 37 to linear peptides of protein X5 of SARS-CoV Urbani” value worked out at 0.6, the “Binding of serum 37 to looped/cyclic peptides of protein X5 of SARS-CoV Urbani” value stood at 0.4, the “Binding of serum 62 to linear peptides of protein X5 of SARS-CoV Urbani” value was 0.7 and the “Binding of serum 62 to looped/cyclic peptides of protein X5 of SARS-CoV Urbani” value is recorded as 0.8. In experiment [1], the “Binding of serum London to linear peptides of protein X5 of SARS-CoV Urbani” value was determined as 0.6, the “Binding of serum London to looped/cyclic peptides of protein X5 of SARS-CoV Urbani” value is 0.2, the “Binding of serum SARS-green to linear peptides of protein X5 of SARS-CoV Urbani” value is 0.5 and the “Binding of serum SARS-green to looped/cyclic peptides of protein X5 of SARS-CoV Urbani” value is listed as 0.3. Moreover, in experiment [1], the “Binding of serum SARS-yellow to linear peptides of protein X5 of SARS-CoV Urbani” value was determined as 0.2 and the “Binding of serum SARS-yellow to looped/cyclic peptides of protein X5 of SARS-CoV Urbani” value is on record as 0.8. For the same sequence, in experiment [2], the “Binding of Control Serum Blood-Bank to Looped peptides” value was 0.4, the “Binding of Control serum Blood-bank to linear peptides” value was 0.7, the “Binding of Control serum LUMC to linear peptides” value was found to be 0.5 and the “Binding of Control serum LUMC to looped peptides” value is 0.6. In experiment [3], the “Rabbit serum linear peptides” value is recorded as 0.9 and the “Rabbit serum looped peptides” value is listed as 0.8.
